# Reference: EP2768830B1, “APOPTOSIS-INDUCING AGENTS FOR THE TREATMENT OF CANCER AND IMMUNE AND AUTOIMMUNE DISEASES” (AbbVie Inc., priority 2011, dated 2013)
# Read-outs that look alike come from different tables or passages of the source.
# Experiments:
# [1] = system: mouse FL5.12 cells transfected with Bcl-XL; assay: FL5.12 cellular assay (cell viability, CellTiter-Glo); type: cell-based; details: FL5.12 cells transfected with Bcl-XL, IL-3-depleted, 3% FBS assay media, 24 hours, CellTiter-Glo, read-out: FL5.12 Bcl-xL, - IL3, EC 50;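 note: each EC50 determination derived from duplicate measurements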
# GST-Bcl-xL = GST-Bcl-xL (Homo sapiens, UniProt Q07817); details: read-out: TR-FRET binding Bcl-xL Ki
# Sequence of GST-Bcl-xL (Q07817 whole entry): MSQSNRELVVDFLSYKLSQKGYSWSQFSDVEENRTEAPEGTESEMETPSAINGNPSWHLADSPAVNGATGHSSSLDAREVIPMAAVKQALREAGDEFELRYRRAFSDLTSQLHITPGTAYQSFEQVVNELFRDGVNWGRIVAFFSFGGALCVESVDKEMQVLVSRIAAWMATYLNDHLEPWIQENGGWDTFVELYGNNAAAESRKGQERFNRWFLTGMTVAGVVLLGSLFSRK
Compound,EC50 ([1]; Mus musculus) [nM],Ki (GST-Bcl-xL) [nM],EC50 [1] [nM]
"O=C(Nc1nc2ccccc2s1)c1cccc2c1CN(c1ccc(-c3cnn(Cc4ccccc4-c4ccccc4)c3)c(C(=O)O)n1)CC2 [Example 62, 6-[8-(1,3-benzothiazol-2-ylcarbamoyl)-3,4-dihydroisoquinolin-2(1H)-yl]-3-[1-(biphenyl-2-ylmethyl)-1H-pyrazol-4-yl]pyridine-2-carboxylic acid]",> 1000,61,–
"COCCCC1(Cn2ncc(-c3ccc(N4CCc5cccc(C(=O)Nc6nc7ccccc7s6)c5C4)nc3C(=O)O)c2C)CCCCC1 [Example 97, 6-[8-(1,3-benzothiazol-2-ylcarbamoyl)-3,4-dihydroisoquinolin-2(1H)-yl]-3-(1-{[1-(3-methoxypropyl)cyclohexyl]methyl}-5-methyl-1H-pyrazol-4-yl)pyridine-2-carboxylic acid]",–,2,< 1
"O=C(Nc1nc2ccccc2s1)c1cccc2c1CN(c1ccc(-c3cn(Cc4ccccc4)c4ncccc34)c(C(=O)O)n1)CC2 [Example 141, 6-[8-(1,3-benzothiazol-2-ylcarbamoyl)-3,4-dihydroisoquinolin-2(1H)-yl]-3-(1-benzyl-1H-pyrrolo[2,3-b]pyridin-3-yl)pyridine-2-carboxylic acid]",433,1,–
"O=C(Nc1nc2ccccc2s1)c1cccc2c1CN(c1ccc(-c3cnn(CC4CCNCC4)c3)c(C(=O)O)n1)CC2 [Example 135, 6-[8-(1,3-benzothiazol-2-ylcarbamoyl)-3,4-dihydroisoquinolin-2(1H)-yl]-3-[1-(piperidin-4-ylmethyl)-1H-pyrazol-4-yl]pyridine-2-carboxylic acid]",> 1000,78,–
"N#Cc1cccc(Cn2cc(-c3ccc(N4CCc5cccc(C(=O)Nc6nc7ccccc7s6)c5C4)nc3C(=O)O)cn2)c1 [Example 24, 6-[8-(1,3-benzothiazol-2-ylcarbamoyl)-3,4-dihydroisoquinolin-2(1H)-yl]-3-[1-(3-cyanobenzyl)-1H-pyrazol-4-yl]pyridine-2-carboxylic acid]",–,64,> 1000
"COCCCC1(Cn2ncc(-c3ccc(N4CCc5cccc(C(=O)Nc6nc7ccccc7s6)c5C4)nc3C(=O)O)c2C)CCCCCC1 [Example 147, 6-[8-(1,3-benzothiazol-2-ylcarbamoyl)-3,4-dihydroisoquinolin-2(1H)-yl]-3-(1-{[1-(3-methoxypropyl)cycloheptyl]methyl}-5-methyl-1H-pyrazol-4-yl)pyridine-2-carboxylic acid]",–,< 0.1,1
"O=C(Nc1nc2cccc(Cl)c2s1)c1cccc2c1CN(c1ccc(-c3cnn(Cc4ccccc4)c3)c(C(=O)O)n1)CC2 [Example 21, 3-(1-benzyl-1H-pyrazol-4-yl)-6-{8-[(7-chloro-1,3-benzothiazol-2-yl)carbamoyl]-3,4-dihydroisoquinolin-2(1H)-yl}pyridine-2-carboxylic acid]",–,183,> 1000
"Cc1c(-c2ccc(N3CCc4cccc(C(=O)Nc5nc6ccccc6s5)c4C3)nc2C(=O)O)cnn1CC1(N2CCOCC2)CCCC(C)(C)C1 (stereo not drawn) [Example 145, 6-[8-(1,3-benzothiazol-2-ylcarbamoyl)-3,4-dihydroisoquinolin-2(1H)-yl]-3-(1-{[3,3-dimethyl-1-(morpholin-4-yl)cyclohexyl]methyl}-5-methyl-1H-pyrazol-4-yl)pyridine-2-carboxylic acid]",0.2,< 0.1,–
"Cc1c(-c2ccc(N3CCc4cccc(C(=O)Nc5nc6ccccc6s5)c4C3)nc2C(=O)O)ccnc1N(C)c1ccccc1 [Example 143, 6-[8-(1,3-benzothiazol-2-ylcarbamoyl)-3,4-dihydroisoquinolin-2(1H)-yl]-3'-methyl-2'-[methyl(phenyl)amino]-3,4'-bipyridine-2-carboxylic acid]",19,< 0.1,–
"COCCOC1(Cn2ncc(-c3ccc(N4CCc5cccc(C(=O)Nc6nc7ccccc7s6)c5C4)nc3C(=O)O)c2C)CCCCC1 [Example 101, 6-[8-(1,3-benzothiazol-2-ylcarbamoyl)-3,4-dihydroisoquinolin-2(1H)-yl]-3-(1-{[1-(2-methoxyethoxy)cyclohexyl]methyl}-5-methyl-1H-pyrazol-4-yl)pyridine-2-carboxylic acid]",< 1,0.4,–
"Cc1c(-c2ccc(N3CCc4cccc(C(=O)Nc5nc6ccccc6s5)c4C3)nc2C(=O)O)cnn1CC1(OCC(O)CO)CCCCCC1 (stereo not drawn) [Example 175, 6-[8-(1,3-benzothiazol-2-ylcarbamoyl)-3,4-dihydroisoquinolin-2(1H)-yl]-3-(1-{[1-(2,3-dihydroxypropoxy)cycloheptyl]methyl}-5-methyl-1H-pyrazol-4-yl)pyridine-2-carboxylic acid]",33,< 0.1,–
"O=C(Nc1nc2ccccc2s1)c1cccc2c1CN(c1ccc(-c3cnn(Cc4ccc(Cl)cc4)c3)c(C(=O)O)n1)CC2 [Example 15, 6-[8-(1,3-benzothiazol-2-ylcarbamoyl)-3,4-dihydroisoquinolin-2(1H)-yl]-3-[1-(4-chlorobenzyl)-1H-pyrazol-4-yl]pyridine-2-carboxylic acid]",–,35,> 1000
"Cc1c(OC2CCCCC2)cccc1-c1ccc(N2CCc3cccc(C(=O)Nc4nc5ccccc5s4)c3C2)nc1C(=O)O [Example 114, 6-[8-(1,3-benzothiazol-2-ylcarbamoyl)-3,4-dihydroisoquinolin-2(1H)-yl]-3-[3-(cyclohexyloxy)-2-methylphenyl]pyridine-2-carboxylic acid]",220,0.2,–
"Cc1c(-c2ccc(N3CCc4cccc(C(=O)Nc5nc6ccccc6s5)c4C3)nc2C(=O)O)cnn1CC1(OCCO)CCCCC1 [Example 169, 6-[8-(1,3-benzothiazol-2-ylcarbamoyl)-3,4-dihydroisoquinolin-2(1H)-yl]-3-(1-{[1-(2-hydroxyethoxy)cyclohexyl]methyl}-5-methyl-1H-pyrazol-4-yl)pyridine-2-carboxylic acid]",10,< 0.1,–
"O=C(Nc1nc2ccccc2s1)c1cccc2c1CN(c1ccc(-c3cccc4c3cnn4Cc3ccccc3)c(C(=O)O)n1)CC2 [Example 187, 6-[8-(1,3-benzothiazol-2-ylcarbamoyl)-3,4-dihydroisoquinolin-2(1H)-yl]-3-(1-benzyl-1H-indazol-4-yl)pyridine-2-carboxylic acid]",318,0.4,–
"O=C(Nc1nc2ccccc2s1)c1cccc2c1CN(c1ccc(-c3cccc(OC4CCCCC4)c3Cl)c(C(=O)O)n1)CC2 [Example 117, 6-[8-(1,3-benzothiazol-2-ylcarbamoyl)-3,4-dihydroisoquinolin-2(1H)-yl]-3-[2-chloro-3-(cyclohexyloxy)phenyl]pyridine-2-carboxylic acid]",131,< 0.1,–
"O=C(Nc1nc2ccccc2s1)c1cccc2c1CN(c1ccc(-c3cnn(Cc4ccccc4OCCN4CCOCC4)c3)c(C(=O)O)n1)CC2 [Example 46, 6-[8-(1,3-benzothiazol-2-ylcarbamoyl)-3,4-dihydroisoquinolin-2(1H)-yl]-3-(1-{2-[2-(morpholin-4-yl)ethoxy]benzyl}-1H-pyrazol-4-yl)pyridine-2-carboxylic acid]",> 1000,9,–
"O=C(Nc1nc2ccccc2s1)c1cccc2c1CN(c1ccc(-c3cnn(Cc4cc(F)ccc4F)c3)c(C(=O)O)n1)CC2 [Example 54, 6-[8-(1,3-benzothiazol-2-ylcarbamoyl)-3,4-dihydroisoquinolin-2(1H)-yl]-3-[1-(2,5-difluorobenzyl)-1H-pyrazol-4-yl]pyridine-2-carboxylic acid]",501,15,–
"COCCC1(Cn2ncc(-c3ccc(N4CCc5cccc(C(=O)Nc6nc7ccccc7s6)c5C4)nc3C(=O)NS(C)(=O)=O)c2C)CCCCCC1 [Example 148, N-(1,3-benzothiazol-2-yl)-2-{5-(1-{[1-(2-methoxyethyl)cycloheptyl]methyl}-5-methyl-1H-pyrazol-4-yl)-6-[(methylsulfonyl)carbamoyl]pyridin-2-yl}-1,2,3,4-tetrahydroisoquinoline-8-carboxamide]",13,< 0.1,–
"O=C(Nc1nc2ccccc2s1)c1cccc2c1CN(c1ccc(-c3cnn(CC4(c5ccccc5)CCCCC4)c3)c(C(=O)O)n1)CC2 [Example 67, 6-[8-(1,3-benzothiazol-2-ylcarbamoyl)-3,4-dihydroisoquinolin-2(1H)-yl]-3-{1-[(1-phenylcyclohexyl)methyl]-1H-pyrazol-4-yl}pyridine-2-carboxylic acid]",106,7,–
"COCCCC(c1ccccc1)n1cc(-c2ccc(N3CCc4cccc(C(=O)Nc5nc6ccccc6s5)c4C3)nc2C(=O)O)cn1 (stereo not drawn) [Example 94, 6-[8-(1,3-benzothiazol-2-ylcarbamoyl)-3,4-dihydroisoquinolin-2(1H)-yl]-3-[1-(4-methoxy-1-phenylbutyl)-1H-pyrazol-4-yl]pyridine-2-carboxylic acid]",253,5,–
"Cc1cc(OCC2CCCCC2)ccc1-c1ccc(N2CCc3cccc(C(=O)Nc4nc5ccccc5s4)c3C2)nc1C(=O)O [Example 115, 6-[8-(1,3-benzothiazol-2-ylcarbamoyl)-3,4-dihydroisoquinolin-2(1H)-yl]-3-[4-(cyclohexylmethoxy)-2-methylphenyl]pyridine-2-carboxylic acid]",916,5,–
"Cc1c(-c2ccc(N3CCc4cccc(C(=O)Nc5nc6ccccc6s5)c4C3)nc2C(=O)O)cnn1Cc1ccccc1OCCN1CCOCC1 [Example 79, 6-[8-(1,3-benzothiazol-2-ylcarbamoyl)-3,4-dihydroisoquinolin-2(1H)-yl]-3-(5-methyl-1-{2-[2-(morpholin-4-yl)ethoxy]benzyl}-1H-pyrazol-4-yl)pyridine-2-carboxylic acid]",19,0.5,–
"O=C(Nc1nc2ccccc2s1)c1cccc2c1CN(c1ccc(-c3ccnc(OC4CCCCC4)c3)c(C(=O)O)n1)CC2 [Example 139, 6-[8-(1,3-benzothiazol-2-ylcarbamoyl)-3,4-dihydroisoquinolin-2(1H)-yl]-2'-(cyclohexyloxy)-3,4'-bipyridine-2-carboxylic acid]",> 1000,0.4,–
